Where a name gives a salt, the structure may show the parent alone. Read-outs that look alike come from different tables or passages of the source.
Assays:
[1] = tested on: SUDHL10; assay: Induction of caspase-3/7 activity (Caspase-Glo 3/7), SUDHL10; assay type: cell-based; settings: caspase-3/7 induction, SUDHL10 cells, 3 h treatment, median
Summary of the method: (§1)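 Apoptosis induction measured as caspase-3/7 activity (Caspase-Glo 3/7) in DLBCL lines after 3 h treatment at 37 °C; EC50 derived relative to the reference compound's maximal induction, with C0 fixed at 1.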

[2] = tested on: SUDHL10; assay: Anti-proliferative effect (CellTiter-Glo, 72 h), SUDHL10; assay type: cell-based; settings: SUDHL10 cells, antiproliferation, median, read-out: Antiproli SUDHL10 [M] (median)
Description: Assessment of the Anti-Proliferative Effect of Compounds in Different Cell Lines
The impact of compounds on the proliferation of different cell lines was assessed using the CellTiter-Glo® Luminescent Cell Viability reagent from Promega (G7573). Of note, SUDHL10 and SUDHL5 (DLBCL), NCI-H929 (Multiple Myeloma), A2780 (ovarian carcinoma) as well as MV-4-11(AML) cells are sensitive to MCL-1 inhibition.
In parallel, cells were plated in a reference (day 0) plate for time zero determination.
Rim wells were excluded. The cells were incubated for 72 h hours in a humidified incubator at 37° C. The day 0 plate was measured by adding 30 μl/well of CTG solution (CellTiter-Glo® Luminescent Cell Viability reagent, Promega G7573) to time zero wells in the reference plate followed by a 10 minutes incubation and luminescence reading at 0.1 ms, using the PHERAstar FS microplate reader (BMG Labtech).
After 72 h incubation, the treated plates were measured in the same way as the day 0 plate mentioned above.

[3] = tested on: SUDHL5; assay: Induction of caspase-3/7 activity (Caspase-Glo 3/7), SUDHL5; assay type: cell-based; settings: caspase-3/7 induction, SUDHL5 cells, 3 h treatment, median
Summary of the method: as §1

[4] = tested on: SUDHL5; assay: Anti-proliferative effect (CellTiter-Glo, 72 h), SUDHL5; assay type: cell-based; settings: SUDHL5 cells, antiproliferation, median, read-out: Antiproli SUDHL5 [M] (median)
Summary of the method: (§2)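 After seeding, one plate is read right away by CellTiter-Glo luminescence to fix time zero. The treated plates stay at 37 °C in humidified air for 72 h and are then measured with the same reagent and 10 min incubation.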

[5] = tested on: SUDHL10; assay: Induction of cytotoxicity (CellTiter-Glo, 5 h), SUDHL10
Description: Therefore, cytotoxicity assays were run in parallel in SUDHL5 and SUDHL10 cells.
The different cell lines were plated in culture medium (RPMI 1640 [GIBCO #22400-089]supplemented with 10% Fetal Bovine Serum) at a density of 3.300 cells in 30 μl/well in a sterile, solid black, flat bottom, polystyrene, TC-treated 384-well microplate (Corning #3571) using Multidrop Combi Reagent Dispenser. As a control, medium without cells was also added to the plate. Cells were incubated in a humidified incubator at 37° C. overnight. On the next day, the cells were treated with compounds (stock solution, 10 mM in DMSO) using the HP D300 Digital Dispenser in a concentration range of 3.3×10e-5 M (33 μM) to 5×10e-9 M (5 nM) in a single-dot curve with at least 16 dilutions and a DMSO concentration of 0.33%. Rim wells were excluded. The cells were incubated for 5 h hours in a humidified incubator at 37° C. After this incubation, 30 μl of CellTiter-Glo@ Luminescent Cell Viability reagent (Promega, G7573) was added to each well using the Multidrop Combi Reagent Dispenser, followed by 15 min incubation on a shaker at room temperature. Finally, luminescence was read at 0.1 ms, with a gain of 3000 using the PHERAstar FS microplate reader (BMG Labtech).
The Bella DRC Master Sheet was used to calculate IC50s, with fixed CI=0 and C0=1.

[6] = tested on: SUDHL5; assay: Induction of cytotoxicity (CellTiter-Glo, 5 h), SUDHL5
[7] = target: MCL-1 (Homo sapiens, UniProt Q07820); assay: Protein-protein interaction assay MCL-1/Noxa BH3 peptide (MCL-1 assay), TR-FRET; assay type: binding; settings: MBP-MCL-1 / Noxa BH3-derived peptide, median
Sequence of MCL-1 (Q07820 whole entry): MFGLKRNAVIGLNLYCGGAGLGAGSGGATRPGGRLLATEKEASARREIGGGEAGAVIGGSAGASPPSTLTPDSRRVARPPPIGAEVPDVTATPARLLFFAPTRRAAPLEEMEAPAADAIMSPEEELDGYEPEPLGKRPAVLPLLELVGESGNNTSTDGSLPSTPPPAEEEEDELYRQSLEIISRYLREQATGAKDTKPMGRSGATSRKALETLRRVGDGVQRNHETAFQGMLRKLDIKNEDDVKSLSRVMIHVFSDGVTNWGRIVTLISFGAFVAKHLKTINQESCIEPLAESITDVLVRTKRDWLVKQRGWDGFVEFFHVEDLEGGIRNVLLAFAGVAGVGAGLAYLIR
Summary of the method: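 Inhibition values were normalized between DMSO controls with all reagents and controls lacking MCL-1. The binding competition used 1 nM MBP-MCL-1 in pH 7 Tris buffer containing 50 mM KF and 100 mM NaCl, with a 10 min compound preincubation at 22 °C.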

[8] = tested on: A2780; assay: Anti-proliferative effect (CellTiter-Glo, 72 h), A2780; assay type: cell-based; settings: A2780 cells, median, read-out: IC50 antiproliferation assay A2780 [M] (median)
Summary of the method: as §2

[9] = Homo sapiens, SU-DHL10, 72 h, 72 h incubation
[10] = Homo sapiens, SU-DHL-5, 72 h, 72 h incubation
[11] = Homo sapiens, SU-DHL10, 5 h, read-out: Cytotox SUDHL10 [M] (median), SUDHL10 cells, cytotoxicity induction, CellTiter-Glo, 5 h incubation, median
[12] = Homo sapiens, SU-DHL-5, 5 h, read-out: Cytotox SUDHL5 [M] (median), SUDHL5 cells, cytotoxicity induction, CellTiter-Glo, 5 h incubation, median
[13] = Homo sapiens, SU-DHL10, 72 h, 72 h
[14] = Homo sapiens, SU-DHL-5, 72 h, 72 h
[15] = Homo sapiens, SU-DHL10, 5 h, read-out: Cytotox SUDHL10 [M] (median), SUDHL10 cells, cytotoxicity induction, CellTiter-Glo, 5 h, median
[16] = Homo sapiens, SU-DHL-5, 5 h, read-out: Cytotox SUDHL5 [M] (median), SUDHL5 cells, cytotoxicity induction, CellTiter-Glo, 5 h, median

| Compound | EC50 ([1]; Homo sapiens, SU-DHL10, 3 h) [µM] | IC50 [2, 9] [M] | EC50 ([3]; Homo sapiens, SU-DHL-5, 3 h) [µM] | IC50 [4, 10] [M] | IC50 [7] [µM] | IC50 ([8]; Homo sapiens, A2780, 72 h) [M] | IC50 [2, 13] [M] | IC50 [4, 14] [M] | EC50 [1] [µM] | IC50 ([2]; 72 h incubation) [M] | EC50 [3] [µM] | IC50 ([4]; 72 h incubation) [M] | IC50 [8] [M] | IC50 [5, 11] [M] | IC50 [6, 12] [M] | IC50 [5, 15] [M] | IC50 [6, 16] [M] | IC50 ([5]; read-out: Cytotox SUDHL10 [M] (median), SUDHL10 cells, cytotoxicity induction, CellTiter-Glo, 5 h incubation, median) | IC50 ([6]; read-out: Cytotox SUDHL5 [M] (median), SUDHL5 cells, cytotoxicity induction, CellTiter-Glo, 5 h incubation, median) |
| --- | --- | --- | --- | --- | --- | --- | --- | --- | --- | --- | --- | --- | --- | --- | --- | --- | --- | --- | --- |
| Cc1nn(C)c2c1-c1cccc3c(CCCOc4cccc5cc(F)ccc45)c(C(=O)O)n(c13)CCCOC2 (racemic) [Example 046, (rac)-1-{3-[(6-fluoronaphthalen-1-yl)oxy]propyl}-9,11-dimethyl-5,6,8,9-tetrahydro-4H-pyrazolo[4′,3′:8,9][1,5]oxazecino[7,6,5-hi]indole-2-carboxylic Acid] | 17 | 3.94e-06 | 5.7 | 6.27e-06 | 0.0108 | 2.65e-05 |  |  |  |  |  |  |  | 2.33e-05 | 6.09e-06 |  |  |  |  |
| Cn1nc(CCN2CCOCC2)c2c1COCCCCn1c(C(=O)O)c(CCCOc3cccc4ccccc34)c3cccc-2c31 (single isomer, unassigned; enantiomer 2) [Example 152, 1-methyl-3-(2-(morpholin-4-yl)ethyl-7-[3-(naphthalen-1-yloxy)propyl]-11,10,11,12,13,15-hexahydropyrazolo[4′,3′:9,10][1,6]oxazacycloundecino[8,7,6-hi]indole-8-carboxylic acid-N-ethylethanamine Salt (Enantiomer 2)] |  |  |  |  | 0.379 |  |  |  | > 33 | 1.76e-05 | > 33 | > 3.3e-05 | > 3.3e-05 |  |  |  |  | > 3.3e-05 | > 3.3e-05 |
| Cc1c2c(nn1C)CCCCCCn1c(C(=O)O)c(CCCOc3cccc4ccccc34)c3cccc-2c31 (racemic) [Example 190, (rac)-2,3-dimethyl-7-[3-(1-naphthyloxy)propyl]-10,11,12,13,14,15-hexahydro-2H-pyrazolo[4′,3′:4,5]azacycloundecino[3,2,1-hi]indole-8-carboxylic Acid] | 7.26 | 5.34e-06 | 3.13 | 2.35e-06 | 0.00546 | 2.02e-05 |  |  |  |  |  |  |  | 9.19e-06 | 3.85e-06 |  |  |  |  |

Now from value to compound, other results behind:

| EC50 ([1]; Homo sapiens, SU-DHL10, 3 h) [µM] | IC50 [2, 9] [M] | EC50 ([3]; Homo sapiens, SU-DHL-5, 3 h) [µM] | IC50 [4, 10] [M] | IC50 [7] [µM] | IC50 ([8]; Homo sapiens, A2780, 72 h) [M] | IC50 [2, 13] [M] | IC50 [4, 14] [M] | EC50 [1] [µM] | IC50 ([2]; 72 h incubation) [M] | EC50 [3] [µM] | IC50 ([4]; 72 h incubation) [M] | IC50 [8] [M] | Compound | IC50 [5, 11] [M] | IC50 [6, 12] [M] | IC50 [5, 15] [M] | IC50 [6, 16] [M] | IC50 ([5]; read-out: Cytotox SUDHL10 [M] (median), SUDHL10 cells, cytotoxicity induction, CellTiter-Glo, 5 h incubation, median) | IC50 ([6]; read-out: Cytotox SUDHL5 [M] (median), SUDHL5 cells, cytotoxicity induction, CellTiter-Glo, 5 h incubation, median) |
| --- | --- | --- | --- | --- | --- | --- | --- | --- | --- | --- | --- | --- | --- | --- | --- | --- | --- | --- | --- |
| > 33 |  | > 33 |  | 0.032 | > 3.3e-05 | > 3.3e-05 | > 3.3e-05 |  |  |  |  |  | CC(=O)NCc1nn(C)c2c1-c1cccc3c(CCCOc4cccc5ccccc45)c(C(=O)O)n(c13)CCCCOC2 (racemic) [Example 339, (rac)-3-[(acetylamino)methyl]-1-methyl-7-[3-(naphthalen-1-yloxy)propyl]-1,10,11,12,13,15-hexahydropyrazolo[4′,3′:9,10][1,6]oxazacycloundecino[8,7,6-hi]indole-8-carboxylic Acid] |  |  | > 3.3e-05 | > 3.3e-05 |  |  |
| > 33 |  | 18.9 |  | 0.203 | > 3.3e-05 | 2.02e-05 | 9.13e-06 |  |  |  |  |  | Cn1nc(CN2CCCCC2)c2c1COCCCCn1c(C(=O)O)c(CCCOc3cccc4ccccc34)c3cccc-2c31 (racemic) [Example 332, (rac)-1-methyl-7-[3-(naphthalen-1-yloxy)propyl]-3-(piperidin-1-ylmethyl)-1,10,11,12,13,15-hexahydropyrazolo[4′,3′:9,10][1,6]oxazacycloundecino[8,7,6-hi]indole-8-carboxylic Acid] |  |  | > 3.3e-05 | 1.94e-05 |  |  |
| > 33 | 9.2e-06 | > 33 | 1.5e-05 | 0.0425 | 2.03e-05 |  |  |  |  |  |  |  | Cc1ccc2c(C(C)CCOc3cccc4ccccc34)c(C(=O)O)n3c2c1-c1c(C)nn(C)c1COCCCC3 (racemic) [Example 256, 1,3,4-trimethyl-7-[4-(naphthalen-1-yloxy)butan-2-yl]-1,10,11,12,13,15-hexahydropyrazolo[4′,3′:9,10][1,6]oxazacycloundecino[8,7,6-hi]indole-8-carboxylic Acid] | > 3.3e-05 | 2.29e-05 |  |  |  |  |

Reference: patent US10981932B2, “Macrocyclic indole derivatives” (Bayer Aktiengesellschaft, priority 2016, dated 2021)
